Laboratory results as given in ChEMBL document CHEMBL1147177, “Identification of tyrosinase inhibitors from Marrubium velutinum and Marrubium cylleneum” (Bioorg Med Chem, 2007).

Key:
[1] = molecular target: T1, Tyrosinase (Agaricus bisporus) (UniProt O42713); assay: Inhibition of diphenolase activity of mushroom tyrosinase at 0.053 mM
T1 sequence (whole entry): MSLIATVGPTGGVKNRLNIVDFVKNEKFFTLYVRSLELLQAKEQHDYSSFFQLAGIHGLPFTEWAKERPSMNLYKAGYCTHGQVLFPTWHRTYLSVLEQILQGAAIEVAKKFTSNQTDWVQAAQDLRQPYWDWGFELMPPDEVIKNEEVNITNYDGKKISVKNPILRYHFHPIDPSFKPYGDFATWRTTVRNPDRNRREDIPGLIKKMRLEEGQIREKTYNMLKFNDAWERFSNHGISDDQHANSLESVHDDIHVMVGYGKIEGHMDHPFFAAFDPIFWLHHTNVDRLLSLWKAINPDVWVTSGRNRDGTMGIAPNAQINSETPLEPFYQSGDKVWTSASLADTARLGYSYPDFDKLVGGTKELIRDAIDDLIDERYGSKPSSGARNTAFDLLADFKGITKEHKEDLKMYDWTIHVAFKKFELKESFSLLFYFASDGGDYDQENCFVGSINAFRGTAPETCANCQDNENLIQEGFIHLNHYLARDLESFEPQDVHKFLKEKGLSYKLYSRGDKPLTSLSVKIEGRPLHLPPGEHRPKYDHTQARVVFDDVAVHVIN

[2] = molecular target: T1, Tyrosinase (Agaricus bisporus); assay: Inhibition of diphenolase activity of mushroom tyrosinase at 0.034 mM
[3] = molecular target: T1, Tyrosinase (Agaricus bisporus); assay: Inhibition of diphenolase activity of mushroom tyrosinase at 0.042 mM
[4] = molecular target: T1, Tyrosinase (Agaricus bisporus); assay: Inhibition of diphenolase activity of mushroom tyrosinase at 0.056 mM
[5] = molecular target: T1, Tyrosinase (Agaricus bisporus); assay: Inhibition of diphenolase activity of mushroom tyrosinase at 0.011 mM
[6] = molecular target: T1, Tyrosinase (Agaricus bisporus); assay: Inhibition of diphenolase activity of mushroom tyrosinase at 0.093 mM
[7] = molecular target: T1, Tyrosinase (Agaricus bisporus); assay: Inhibition of diphenolase activity of mushroom tyrosinase at 0.051 mM
[8] = molecular target: T1, Tyrosinase (Agaricus bisporus); assay: Inhibition of diphenolase activity of mushroom tyrosinase at 0.049 mM
[9] = molecular target: T1, Tyrosinase (Agaricus bisporus); assay: Inhibition of diphenolase activity of mushroom tyrosinase at 0.041 mM
[10] = molecular target: T1, Tyrosinase (Agaricus bisporus); assay: Inhibition of diphenolase activity of mushroom tyrosinase at 0.055 mM
[11] = molecular target: T1, Tyrosinase (Agaricus bisporus); assay: Inhibition of diphenolase activity of mushroom tyrosinase at 0.074 mM
[12] = molecular target: T1, Tyrosinase (Agaricus bisporus); assay: Inhibition of diphenolase activity of mushroom tyrosinase at 0.050 mM
[13] = molecular target: T1, Tyrosinase (Agaricus bisporus); assay: Inhibition of diphenolase activity of mushroom tyrosinase at 0.070 mM
[14] = molecular target: T1, Tyrosinase (Agaricus bisporus); assay: Inhibition of diphenolase activity of mushroom tyrosinase at 0.044 mM
[15] = molecular target: T1, Tyrosinase (Agaricus bisporus); assay: Inhibition of diphenolase activity of mushroom tyrosinase at 0.035 mM
[16] = molecular target: T1, Tyrosinase (Agaricus bisporus); assay: Inhibition of diphenolase activity of mushroom tyrosinase at 0.036 mM
[17] = molecular target: T1, Tyrosinase (Agaricus bisporus); assay: Inhibition of diphenolase activity of mushroom tyrosinase at 0.083 mM
[18] = molecular target: T1, Tyrosinase (Agaricus bisporus); assay: Inhibition of diphenolase activity of mushroom tyrosinase at 0.052 mM
[19] = molecular target: T1, Tyrosinase (Agaricus bisporus); assay: Inhibition of diphenolase activity of mushroom tyrosinase at 0.231 mM
[20] = molecular target: T1, Tyrosinase (Agaricus bisporus); assay: Inhibition of diphenolase activity of mushroom tyrosinase at 0.064 mM

Q: With COc1cc(-c2oc3cc(O)cc(O)c3c(=O)c2O[C@@H]2O[C@H](CO[C@@H]3O[C@@H](C)[C@H](O)[C@@H](O)[C@H]3O)[C@@H](O)[C@H](O)[C@H]2O)ccc1O as the compound, how does the inhibition [1] read?
A: 13.1%

Q: C[C@H]1O[C@H](O[C@@H]2[C@@H](O)[C@H](O)O[C@H](CO)[C@H]2OC(=O)/C=C/c2ccc(O)c(O)c2)[C@@H](O)[C@@H](O)[C@@H]1O was tested. Which inhibition [2] did it give?
A: 10.9%

Q: COc1cc(/C=C/C(=O)O[C@H]2[C@H](O[C@H]3O[C@H](C)[C@@H](O)[C@H](O)[C@@H]3O)[C@@H](O)[C@H](OCCc3ccc(O)c(OC)c3)O[C@@H]2CO[C@H]2OCC(O)(CO)[C@@H]2O)ccc1O (stereo partly specified) was tested. Which inhibition [3] did it give?
A: 12.7%

Q: What does the source list for O=C(/C=C/c1ccc(O)cc1)OC[C@H]1O[C@@H](Oc2c(-c3ccc(O)cc3)oc3cc(O)cc(O)c3c2=O)[C@H](O)[C@@H](O)[C@@H]1O?
A: inhibition [4]: 30.2%; inhibition [5]: 14.7%

Q: O=c1cc(-c2ccc(O)cc2)oc2cc(O)cc(O)c12 was tested. Which inhibition [6] did it give?
A: 14%

Q: How did the inhibition [7] turn out when COc1cc(/C=C/C(=O)O[C@H]2[C@H](O[C@@H]3O[C@@H](C)[C@H](O)[C@@H](O)[C@H]3O)[C@@H](O)[C@H](OCCc3ccc(O)c(O)c3)O[C@@H]2CO)ccc1O was run?
A: 21.6%

Q: For O=C(/C=C/c1ccc(O)c(O)c1)O[C@@H]1C[C@](O)(C(=O)O)C[C@@H](O)[C@H]1O, which inhibition [8] is on record?
A: 7.78%

Q: How did the inhibition [8] turn out when COc1ccc(-c2cc(=O)c3c(OC)c(OC)c(OC)cc3o2)cc1 was run?
A: 3.23%

Q: How did the inhibition [9] turn out when O=C(O)/C=C/c1ccc(O)cc1 was run?
A: 8.87%

Q: With O=c1cc(-c2ccc(O)cc2)oc2c(O)c(O)c(O)c(O)c12 as the compound, how does the inhibition [10] read?
A: 5.21%

Q: For COc1ccc(-c2cc(=O)c3c(O)c(O)c(OC)cc3o2)cc1, which inhibition [1] is on record?
A: 2.78%

Q: With O=c1c(O[C@@H]2O[C@H](CO)[C@@H](O)[C@H](O)[C@H]2O)c(-c2ccc(O)cc2)oc2cc(O)cc(O)c12 as the compound, how does the inhibition [11] read?
A: 24.2%

Q: With COc1ccc(-c2cc(=O)c3c(OC)c(O)c(OC)cc3o2)cc1 as the compound, how does the inhibition [12] read?
A: 4.24%

Q: With COc1cc(-c2oc3cc(O)cc(O)c3c(=O)c2O[C@@H]2O[C@H](CO)[C@@H](O)[C@H](O)[C@H]2O)ccc1O as the compound, how does the inhibition [13] read?
A: 24.2%

Q: With COc1cc(-c2cc(=O)c3c(O)cc(O[C@@H]4O[C@H](COC(=O)/C=C/c5ccc(O)cc5)[C@@H](O)[C@H](OC(=O)/C=C/c5ccc(O)cc5)[C@H]4O)cc3o2)ccc1O as the compound, how does the inhibition [14] read?
A: 15.6%

Q: For C[C@@H]1O[C@@H](OC[C@H]2O[C@@H](Oc3c(-c4ccc(O)cc4)oc4cc(O)cc(O)c4c3=O)[C@H](O)[C@@H](O)[C@@H]2O)[C@H](O)[C@H](O)[C@H]1O, which inhibition [4] is on record?
A: 16.1%

Q: How did the inhibition [15] turn out when COc1cc(/C=C/C(=O)O)ccc1O was run?
A: 6.68%

Q: How did the inhibition [3] turn out when COc1ccc(CCO[C@@H]2O[C@H](CO)[C@@H](OC(=O)/C=C/c3ccc(O)c(OC)c3)[C@H](O[C@@H]3O[C@@H](C)[C@H](O)[C@@H](O)[C@H]3O[C@@H]3OC[C@@H](O)[C@@H](O)[C@@H]3O)[C@H]2O)cc1O was run?
A: 9.48%

Q: Which inhibition [16] does the source give for C[C@@H]1O[C@@H](O[C@@H]2[C@@H](O)[C@H](OCCc3ccc(O)c(O)c3)O[C@H](CO[C@@H]3O[C@H](CO)[C@@H](O)[C@H](O)[C@H]3O)[C@H]2OC(=O)/C=C/c2ccc(O)c(O)c2)[C@H](O[C@@H]2OC[C@@H](O)[C@@H](O)[C@@H]2O)[C@H](O)[C@H]1O here?
A: 12.4%

Q: For COc1cc(-c2cc(=O)c3c(O)cc(O)cc3o2)ccc1O, which inhibition [17] is on record?
A: 16.4%

Q: O=c1c(O)c(-c2ccc(O)c(O)c2)oc2cc(O)cc(O)c12 was tested. Which inhibition [7] did it give?
A: 49.7%

Q: With C[C@@H]1O[C@@H](O[C@@H]2[C@@H](O)[C@H](OCCc3ccc(O)c(O)c3)O[C@H](CO)[C@H]2OC(=O)/C=C/c2ccc(O)c(O)c2)[C@H](O)[C@H](O)[C@H]1O as the compound, how does the inhibition [1] read?
A: 25.8%

Q: For COc1ccc(CCO[C@@H]2O[C@H](CO)[C@@H](OC(=O)/C=C/c3ccc(O)c(OC)c3)[C@H](O[C@@H]3O[C@@H](C)[C@H](O)[C@@H](O)[C@H]3O)[C@H]2O)cc1O, which inhibition [18] is on record?
A: 20.6%

Q: With C[C@H]1O[C@H](O[C@@H]2[C@@H](O)[C@H](OCCc3ccc(O)c(O)c3)O[C@H](CO[C@H]3O[C@@H](CO)[C@H](O)[C@@H](O)[C@@H]3O)[C@H]2OC(=O)/C=C/c2ccc(O)c(O)c2)[C@@H](O)[C@@H](O)[C@@H]1O as the compound, how does the inhibition [3] read?
A: 17.5%

Q: How did the inhibition [11] turn out when O=c1cc(-c2ccc(O)c(O)c2)oc2cc(O[C@@H]3O[C@H](CO)[C@@H](O)[C@H](O)[C@H]3O)cc(O)c12 was run?
A: 27.4%

Q: C[C@@H]1O[C@@H](OC[C@H]2O[C@@H](Oc3c(-c4ccc(O)c(O)c4)oc4cc(O)cc(O)c4c3=O)[C@H](O)[C@@H](O)[C@@H]2O)[C@H](O)[C@H](O)[C@H]1O was tested. Which inhibition [10] did it give?
A: 12.7%

Q: For COc1cc(-c2oc3cc(O)cc(O)c3c(=O)c2O[C@@H]2O[C@H](COC(=O)/C=C/c3ccc(O)cc3)[C@@H](O)[C@H](O)[C@H]2O)ccc1O, which inhibition [1] is on record?
A: 21.1%

Q: Which inhibition [19] does the source give for C[N+]1(C)CCC[C@@H]1C(=O)[O-] here?
A: 11.1%

Q: Which inhibition [8] does the source give for COc1cc(C[C@@H]2CO[C@@H](c3ccc(O[C@H]4O[C@@H](CO)[C@H](O)[C@@H](O)[C@@H]4O)c(OC)c3)[C@@H]2CO)ccc1O[C@H]1O[C@@H](CO)[C@H](O)[C@@H](O)[C@@H]1O here?
A: 11.1%

Q: With O=C(O)CC(OC(=O)/C=C/c1ccc(O)c(O)c1)C(=O)O (stereo unspecified) as the compound, how does the inhibition [4] read?
A: 4.62%

Q: COc1cc([C@@H]2OC[C@@H](Cc3ccc(O[C@H]4O[C@@H](CO)[C@H](O)[C@@H](O)[C@@H]4O)c(OC)c3)[C@H]2CO)ccc1O was tested. Which inhibition [20] did it give?
A: 12.3%

Q: Which inhibition [10] does the source give for C[C@H]1O[C@H](OC[C@H]2O[C@@H](Oc3c(-c4ccc(O)cc4)oc4cc(O)c(O)c(O)c4c3=O)[C@H](O)[C@@H](O)[C@@H]2O)[C@@H](O)[C@@H](O)[C@@H]1O here?
A: 27.1%

Q: How did the inhibition [20] turn out when COc1cc(-c2oc3cc(O)cc(O)c3c(=O)c2O[C@@H]2O[C@H](COC(C)=O)[C@@H](O)[C@H](O)[C@H]2O)ccc1O was run?
A: 23.3%

Q: With COc1ccc(CCO[C@@H]2O[C@H](CO[C@@H]3O[C@H](CO)[C@@H](O)[C@H](O)[C@H]3O)[C@@H](OC(=O)/C=C/c3ccc(O)c(OC)c3)[C@H](O[C@@H]3O[C@@H](C)[C@H](O)[C@@H](O)[C@H]3O[C@@H]3OC[C@@H](O)[C@@H](O)[C@@H]3O)[C@H]2O)cc1O as the compound, how does the inhibition [15] read?
A: 13.2%

Q: How did the inhibition [3] turn out when COc1cc(/C=C/C(=O)O[C@H]2[C@H](O[C@@H]3O[C@@H](C)[C@H](O)[C@@H](O)[C@H]3O[C@@H]3OC[C@@H](O)[C@@H](O)[C@@H]3O)[C@@H](O)[C@H](OCCc3ccc(O)c(OC)c3)O[C@@H]2CO)ccc1O was run?
A: 17.3%

Q: Which inhibition [14] does the source give for C[C@@H]1O[C@@H](O[C@@H]2[C@@H](O)[C@H](OCCc3ccc(O)c(O)c3)O[C@H](CO)[C@H]2OC(=O)/C=C/c2ccc(O)c(O)c2)[C@H](O[C@@H]2OC[C@@H](O)[C@@H](O)[C@@H]2O)[C@H](O)[C@H]1O here?
A: 12%

Q: O=C(/C=C/c1ccc(O)cc1)OC[C@H]1O[C@@H](Oc2c(-c3ccc(O)c(O)c3)oc3cc(O)cc(O)c3c2=O)[C@H](O)[C@@H](O)[C@@H]1O was tested. Which inhibition [10] did it give?
A: 21.9%

Q: For COc1ccc(CCO[C@@H]2O[C@H](CO[C@H]3O[C@@H](CO)[C@H](O)[C@@H](O)[C@@H]3O)[C@@H](OC(=O)/C=C/c3ccc(O)c(OC)c3)[C@H](O[C@H]3O[C@H](C)[C@@H](O)[C@H](O)[C@@H]3O)[C@H]2O)cc1O, which inhibition [9] is on record?
A: 22.6%

Q: COc1cc(C[C@@H]2CO[C@@H](c3ccc(O[C@H]4O[C@@H](CO)[C@H](O)[C@@H](O)[C@@H]4O)c(OC)c3)[C@@H]2CO)ccc1O was tested. Which inhibition [20] did it give?
A: 17.7%

Q: COc1cc(/C=C/C(=O)O[C@H]2[C@H](O[C@@H]3O[C@@H](C)[C@H](O)[C@@H](O)[C@H]3O[C@@H]3OC[C@@H](O)[C@@H](O)[C@@H]3O)[C@@H](O)[C@H](OCCc3ccc(O)c(O)c3)O[C@@H]2CO[C@@H]2O[C@H](CO)[C@@H](O)[C@H](O)[C@H]2O)ccc1O was tested. Which inhibition [16] did it give?
A: 15.5%
